Test results reported in PMC5762315, “Inhibition of polo-like kinase 4 (PLK4): a new therapeutic option for rhabdoid tumors and pediatric medulloblastoma” (Oncotarget, 2017).
“And” between values parts separate entries of the source, which are not always exact repeats. Equal values may be shown once.

Columns and labels:
DAOY cells = test: Colony formation assay, DAOY; type: cell-based, human; conditions: 50nM
Experimental: For proliferation assay DAOY was plated with 5 x 10^4 cells per well and D283 was plated with 5 x 10^5 cells per well.

various kinases [1] = biological target: various kinases (Homo sapiens, UniProt P00519, M351T); test: LanthaScreen Eu Kinase Binding Assay, panel of 486 biochemical kinase assays; conditions: ABL1 M351T
various kinases [2] = biological target: various kinases (Homo sapiens, UniProt Q8WXR4); test: as above; conditions: MYO3B (MYO3 beta)
various kinases [3] = biological target: various kinases (Homo sapiens, UniProt P53671); test: as above; conditions: LIMK2
various kinases [4] = biological target: various kinases (Homo sapiens, UniProt Q86UE8); test: as above; conditions: kinase TLK2; LanthaScreen Binding
various kinases [5] = biological target: T1, various kinases (Homo sapiens, UniProt O75385); test: as above; conditions: kinase ULK1; LanthaScreen Binding
T1 sequence (O75385 1-1050): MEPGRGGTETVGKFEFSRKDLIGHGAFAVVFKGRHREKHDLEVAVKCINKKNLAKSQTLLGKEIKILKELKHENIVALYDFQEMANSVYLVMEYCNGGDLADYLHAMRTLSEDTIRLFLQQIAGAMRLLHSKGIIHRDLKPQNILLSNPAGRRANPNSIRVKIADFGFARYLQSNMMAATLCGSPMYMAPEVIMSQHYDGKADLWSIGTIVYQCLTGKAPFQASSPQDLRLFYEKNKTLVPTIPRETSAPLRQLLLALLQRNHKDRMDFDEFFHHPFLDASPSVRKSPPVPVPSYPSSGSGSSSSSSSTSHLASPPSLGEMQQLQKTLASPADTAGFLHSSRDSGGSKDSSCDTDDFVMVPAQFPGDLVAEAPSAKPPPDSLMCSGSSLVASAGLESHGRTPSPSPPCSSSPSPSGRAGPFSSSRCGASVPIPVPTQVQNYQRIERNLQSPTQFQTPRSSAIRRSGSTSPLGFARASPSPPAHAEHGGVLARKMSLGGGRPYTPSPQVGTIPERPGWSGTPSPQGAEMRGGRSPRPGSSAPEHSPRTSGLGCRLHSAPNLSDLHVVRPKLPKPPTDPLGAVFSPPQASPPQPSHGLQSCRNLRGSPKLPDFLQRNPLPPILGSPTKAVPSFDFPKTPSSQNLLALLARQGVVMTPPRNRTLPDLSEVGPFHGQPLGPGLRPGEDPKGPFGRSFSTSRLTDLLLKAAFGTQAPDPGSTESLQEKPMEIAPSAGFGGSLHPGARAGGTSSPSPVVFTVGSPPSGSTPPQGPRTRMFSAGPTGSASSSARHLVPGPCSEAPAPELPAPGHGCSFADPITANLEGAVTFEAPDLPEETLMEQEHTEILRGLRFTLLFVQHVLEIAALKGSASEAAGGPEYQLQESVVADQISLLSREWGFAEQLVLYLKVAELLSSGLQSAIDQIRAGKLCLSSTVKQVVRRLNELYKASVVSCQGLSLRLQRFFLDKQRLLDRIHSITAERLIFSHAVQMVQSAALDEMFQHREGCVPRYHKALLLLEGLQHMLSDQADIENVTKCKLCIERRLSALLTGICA

various kinases [6] = biological target: various kinases (Homo sapiens, UniProt P11362, V561M); test: as above; conditions: FGFR1 V561M
various kinases [7] = biological target: T2, various kinases (Homo sapiens, UniProt Q99640); test: as above; conditions: kinase PKMYT1; LanthaScreen Binding
T2 sequence (Q99640 1-499): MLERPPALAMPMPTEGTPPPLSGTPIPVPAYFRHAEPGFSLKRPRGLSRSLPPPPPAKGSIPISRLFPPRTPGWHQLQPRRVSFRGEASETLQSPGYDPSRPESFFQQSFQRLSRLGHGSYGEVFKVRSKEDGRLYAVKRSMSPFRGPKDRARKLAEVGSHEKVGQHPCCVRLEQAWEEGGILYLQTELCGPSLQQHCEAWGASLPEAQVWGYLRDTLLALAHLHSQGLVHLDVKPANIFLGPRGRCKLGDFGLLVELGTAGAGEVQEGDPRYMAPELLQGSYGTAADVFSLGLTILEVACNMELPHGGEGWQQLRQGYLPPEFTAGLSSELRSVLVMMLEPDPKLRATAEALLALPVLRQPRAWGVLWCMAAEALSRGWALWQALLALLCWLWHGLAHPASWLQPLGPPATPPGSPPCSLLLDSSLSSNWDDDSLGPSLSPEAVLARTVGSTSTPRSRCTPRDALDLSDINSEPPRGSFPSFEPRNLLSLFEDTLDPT

various kinases [8] = biological target: various kinases (Homo sapiens, UniProt P00519, Q252H); test: as above; conditions: ABL1 Q252H
various kinases [9] = biological target: various kinases (Homo sapiens, UniProt P57058); test: as above; conditions: HUNK
various kinases [10] = biological target: various kinases (Homo sapiens, UniProt Q16513); test: as above; conditions: kinase PKN2 (PRK2); LanthaScreen Binding
various kinases [11] = biological target: various kinases (Homo sapiens, UniProt Q9H2G2); test: as above; conditions: kinase SLK; LanthaScreen Binding
various kinases [12] = biological target: various kinases (Homo sapiens, UniProt P36507); test: as above; conditions: MAP2K2 (MEK2)
[13] = test system: non-neoplastic human fibroblast cells (HFF-SCC058); test: Immunofluorescence for gamma-tubulin (centriole number), fibroblasts; type: cell-based; conditions: 100nM and 500nM
Experimental: The cells were then blocked in blocking buffer (5% BSA (Jackson Immuno Research Laboratories Inc., USA) in PBST) for 1 hour at RT. The primary antibody ([…] 1:500, Sigma, USA) diluted in 1% BSA in PBST was then added and incubated at 4°C overnight. Then, the cells were washed with 1X PBS thrice. Secondary antibody (Anti-Rabbit IgG (H+L) F (ab’) 2, 1:500, Sigma, USA) diluted in 1% BSA in PBST was added and incubated at RT for 2 hours. Three time washes with 1X PBS were performed. Then, 1mL of DAPI (Thermo Fisher Scientific, USA) in PBS (0.5μl of DAPI in 10 ml PBS) was added to the cells and incubated for 10 min at RT. Finally, 3 time washes with 1X PBS were performed and slides were mounted using Mounting Medium (Thermo Fisher Scientific, USA).

Sequence of various kinases (Homo sapiens, UniProt Q16513) (Q16513 whole entry): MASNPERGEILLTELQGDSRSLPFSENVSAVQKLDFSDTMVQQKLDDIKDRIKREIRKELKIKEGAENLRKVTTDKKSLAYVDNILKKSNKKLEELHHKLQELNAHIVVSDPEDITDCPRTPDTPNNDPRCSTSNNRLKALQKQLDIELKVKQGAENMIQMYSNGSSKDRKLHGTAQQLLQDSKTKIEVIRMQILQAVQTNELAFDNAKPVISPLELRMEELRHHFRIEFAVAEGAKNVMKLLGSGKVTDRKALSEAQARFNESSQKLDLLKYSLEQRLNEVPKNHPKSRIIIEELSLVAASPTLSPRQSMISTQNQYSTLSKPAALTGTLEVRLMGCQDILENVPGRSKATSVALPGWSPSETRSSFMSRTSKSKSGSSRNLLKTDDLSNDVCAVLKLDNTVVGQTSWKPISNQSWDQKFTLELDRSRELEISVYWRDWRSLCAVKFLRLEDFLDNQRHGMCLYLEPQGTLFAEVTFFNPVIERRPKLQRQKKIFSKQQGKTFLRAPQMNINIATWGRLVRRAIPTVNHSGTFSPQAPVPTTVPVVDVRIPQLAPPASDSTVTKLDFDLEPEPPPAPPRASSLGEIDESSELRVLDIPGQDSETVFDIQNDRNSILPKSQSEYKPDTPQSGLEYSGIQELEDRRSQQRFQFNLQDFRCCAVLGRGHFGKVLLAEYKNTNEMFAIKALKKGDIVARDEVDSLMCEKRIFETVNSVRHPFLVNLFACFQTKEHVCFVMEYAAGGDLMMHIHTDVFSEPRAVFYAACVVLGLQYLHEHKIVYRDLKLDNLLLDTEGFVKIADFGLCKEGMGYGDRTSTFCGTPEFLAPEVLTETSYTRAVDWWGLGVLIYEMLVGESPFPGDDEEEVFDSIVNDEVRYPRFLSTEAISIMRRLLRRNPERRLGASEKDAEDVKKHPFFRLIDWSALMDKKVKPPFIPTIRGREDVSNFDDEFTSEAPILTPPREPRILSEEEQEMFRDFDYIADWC
Sequence of various kinases (Homo sapiens, UniProt Q86UE8) (Q86UE8 whole entry): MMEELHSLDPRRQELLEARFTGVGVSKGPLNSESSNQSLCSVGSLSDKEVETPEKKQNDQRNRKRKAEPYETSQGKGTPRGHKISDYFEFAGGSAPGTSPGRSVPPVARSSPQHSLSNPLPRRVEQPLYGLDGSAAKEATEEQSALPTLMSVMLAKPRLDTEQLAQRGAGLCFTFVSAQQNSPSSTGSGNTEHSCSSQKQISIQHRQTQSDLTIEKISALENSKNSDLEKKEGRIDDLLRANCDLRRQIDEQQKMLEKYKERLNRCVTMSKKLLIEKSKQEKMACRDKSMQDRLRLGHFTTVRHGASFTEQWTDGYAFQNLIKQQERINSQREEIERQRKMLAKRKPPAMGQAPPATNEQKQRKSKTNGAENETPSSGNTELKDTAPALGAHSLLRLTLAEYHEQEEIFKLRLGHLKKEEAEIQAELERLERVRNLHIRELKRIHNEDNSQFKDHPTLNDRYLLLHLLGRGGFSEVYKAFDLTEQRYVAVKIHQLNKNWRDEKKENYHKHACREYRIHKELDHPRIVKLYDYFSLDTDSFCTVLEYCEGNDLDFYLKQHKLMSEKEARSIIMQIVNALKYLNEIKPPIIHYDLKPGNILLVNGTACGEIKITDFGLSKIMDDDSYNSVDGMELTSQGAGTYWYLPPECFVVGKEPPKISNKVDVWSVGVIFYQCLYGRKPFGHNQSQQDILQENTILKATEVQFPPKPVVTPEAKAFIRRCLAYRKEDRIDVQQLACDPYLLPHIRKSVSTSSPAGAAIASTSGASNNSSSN
Sequence of various kinases (Homo sapiens, UniProt Q9H2G2) (Q9H2G2 whole entry): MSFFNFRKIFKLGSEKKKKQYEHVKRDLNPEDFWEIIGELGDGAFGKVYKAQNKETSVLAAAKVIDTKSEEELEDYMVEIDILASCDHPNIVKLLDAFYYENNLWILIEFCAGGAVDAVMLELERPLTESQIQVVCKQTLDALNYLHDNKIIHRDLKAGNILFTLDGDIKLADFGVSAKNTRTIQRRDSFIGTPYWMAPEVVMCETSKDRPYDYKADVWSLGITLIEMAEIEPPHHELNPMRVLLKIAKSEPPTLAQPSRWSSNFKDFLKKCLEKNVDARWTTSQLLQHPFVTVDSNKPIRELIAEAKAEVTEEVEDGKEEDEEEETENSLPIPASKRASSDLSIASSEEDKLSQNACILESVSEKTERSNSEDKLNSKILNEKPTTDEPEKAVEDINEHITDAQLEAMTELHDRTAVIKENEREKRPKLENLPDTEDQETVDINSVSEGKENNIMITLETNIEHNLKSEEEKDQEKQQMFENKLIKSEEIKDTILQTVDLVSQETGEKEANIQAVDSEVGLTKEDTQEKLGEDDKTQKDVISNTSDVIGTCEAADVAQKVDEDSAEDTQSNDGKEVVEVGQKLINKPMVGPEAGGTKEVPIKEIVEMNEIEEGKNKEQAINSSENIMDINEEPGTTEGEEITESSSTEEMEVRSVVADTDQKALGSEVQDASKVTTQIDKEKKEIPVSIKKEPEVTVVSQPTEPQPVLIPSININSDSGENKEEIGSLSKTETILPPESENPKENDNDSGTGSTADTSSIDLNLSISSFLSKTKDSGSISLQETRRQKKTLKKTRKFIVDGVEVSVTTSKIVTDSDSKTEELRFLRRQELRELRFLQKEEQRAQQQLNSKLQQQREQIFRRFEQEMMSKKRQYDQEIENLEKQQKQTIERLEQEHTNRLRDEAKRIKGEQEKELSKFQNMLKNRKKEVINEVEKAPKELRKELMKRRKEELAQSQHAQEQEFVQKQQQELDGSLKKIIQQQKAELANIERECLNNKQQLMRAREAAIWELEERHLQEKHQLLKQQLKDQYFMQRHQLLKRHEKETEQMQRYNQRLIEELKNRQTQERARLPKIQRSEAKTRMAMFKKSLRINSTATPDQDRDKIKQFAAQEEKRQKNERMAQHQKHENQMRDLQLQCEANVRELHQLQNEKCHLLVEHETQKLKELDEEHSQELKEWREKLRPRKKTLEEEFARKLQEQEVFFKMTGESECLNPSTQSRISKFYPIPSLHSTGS
Sequence of various kinases (Homo sapiens, UniProt P11362, V561M) (P11362 22-822 V561M): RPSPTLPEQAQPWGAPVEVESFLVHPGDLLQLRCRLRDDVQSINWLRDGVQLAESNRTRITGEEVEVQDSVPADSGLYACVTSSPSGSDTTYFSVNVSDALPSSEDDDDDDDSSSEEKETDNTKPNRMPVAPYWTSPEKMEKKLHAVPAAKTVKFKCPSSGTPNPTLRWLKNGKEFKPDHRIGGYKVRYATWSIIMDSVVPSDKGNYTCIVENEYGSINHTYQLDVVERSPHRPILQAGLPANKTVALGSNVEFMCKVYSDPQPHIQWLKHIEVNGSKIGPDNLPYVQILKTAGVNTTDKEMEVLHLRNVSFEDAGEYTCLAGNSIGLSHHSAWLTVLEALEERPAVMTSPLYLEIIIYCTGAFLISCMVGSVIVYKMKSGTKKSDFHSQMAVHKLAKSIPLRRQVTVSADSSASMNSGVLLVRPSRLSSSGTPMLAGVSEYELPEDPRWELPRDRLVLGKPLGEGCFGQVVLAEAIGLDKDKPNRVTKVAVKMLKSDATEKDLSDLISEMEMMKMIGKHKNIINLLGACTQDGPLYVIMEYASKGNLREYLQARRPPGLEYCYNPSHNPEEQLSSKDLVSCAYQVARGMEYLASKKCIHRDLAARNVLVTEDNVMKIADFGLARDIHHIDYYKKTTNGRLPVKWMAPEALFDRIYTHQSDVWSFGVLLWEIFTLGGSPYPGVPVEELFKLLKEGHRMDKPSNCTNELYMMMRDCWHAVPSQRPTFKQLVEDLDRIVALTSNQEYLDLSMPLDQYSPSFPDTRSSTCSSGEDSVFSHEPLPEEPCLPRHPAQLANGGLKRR
Sequence of various kinases (Homo sapiens, UniProt P57058) (P57058 whole entry): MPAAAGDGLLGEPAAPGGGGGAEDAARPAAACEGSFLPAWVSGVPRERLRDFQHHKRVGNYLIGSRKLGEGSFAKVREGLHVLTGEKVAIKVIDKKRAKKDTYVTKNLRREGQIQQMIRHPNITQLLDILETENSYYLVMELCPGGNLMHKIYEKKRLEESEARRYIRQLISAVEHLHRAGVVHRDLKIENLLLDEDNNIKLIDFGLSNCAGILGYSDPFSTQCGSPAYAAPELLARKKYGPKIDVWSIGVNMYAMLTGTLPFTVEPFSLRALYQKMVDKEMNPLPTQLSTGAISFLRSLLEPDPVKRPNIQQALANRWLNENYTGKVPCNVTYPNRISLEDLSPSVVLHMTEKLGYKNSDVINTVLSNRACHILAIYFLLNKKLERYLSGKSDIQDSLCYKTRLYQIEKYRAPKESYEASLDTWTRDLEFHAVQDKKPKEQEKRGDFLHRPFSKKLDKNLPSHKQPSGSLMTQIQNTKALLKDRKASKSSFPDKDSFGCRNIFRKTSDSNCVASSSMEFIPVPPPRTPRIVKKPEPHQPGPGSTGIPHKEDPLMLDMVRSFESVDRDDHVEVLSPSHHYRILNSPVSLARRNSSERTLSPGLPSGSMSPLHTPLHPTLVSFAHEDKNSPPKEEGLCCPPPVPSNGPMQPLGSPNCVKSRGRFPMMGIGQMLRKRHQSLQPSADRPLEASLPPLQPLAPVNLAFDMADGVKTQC
Sequence of various kinases (Homo sapiens, UniProt P36507) (P36507 whole entry): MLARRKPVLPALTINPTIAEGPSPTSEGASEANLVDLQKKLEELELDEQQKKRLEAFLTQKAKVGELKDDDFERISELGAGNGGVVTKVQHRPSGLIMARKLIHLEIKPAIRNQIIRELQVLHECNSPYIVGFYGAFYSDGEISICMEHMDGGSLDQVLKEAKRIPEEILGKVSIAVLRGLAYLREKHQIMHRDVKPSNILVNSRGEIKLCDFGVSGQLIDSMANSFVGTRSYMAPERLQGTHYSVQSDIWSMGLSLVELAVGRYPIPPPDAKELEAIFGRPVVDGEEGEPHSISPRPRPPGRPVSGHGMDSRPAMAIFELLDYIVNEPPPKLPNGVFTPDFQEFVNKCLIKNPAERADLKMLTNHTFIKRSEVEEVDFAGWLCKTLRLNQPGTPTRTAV

Structure (SMILES): COc1ccc2c(c1)[C@]1(C[C@H]1c1ccc3c(/C=C/c4ccc(CN5C[C@@H](C)O[C@@H](C)C5)cc4)n[nH]c3c1)C(=O)N2 [CFI-400945]
- colony formation (DAOY cells): Complete inhibition
- % Inhibition (various kinases [1]): 78% and 79%
- % Inhibition (various kinases [2]): 7% and 6%
- % Inhibition (various kinases [3]): 4% and 0%
- % Inhibition Average (various kinases [4]): 9%
- % Inhibition Duplicate #1 (various kinases [4]): 14%
- % Inhibition Duplicate #2 (various kinases [4]): 5%
- % Inhibition Average (various kinases [5]): 3%
- % Inhibition Duplicate #1 (various kinases [5]): 4%
- % Inhibition Duplicate #2 (various kinases [5]): 2%
- % Inhibition (various kinases [6]): 55% and 57%
- % Inhibition Average (various kinases [7]): 31%
- % Inhibition Duplicate #1 (various kinases [7]): 31%
- % Inhibition Duplicate #2 (various kinases [7]): 30%
- % Inhibition (various kinases [8]): 72%
- % Inhibition (various kinases [9]): 21% and 22%
- % Inhibition Average (various kinases [10]): 50%
- % Inhibition Duplicate #1 (various kinases [10]): 48%
- % Inhibition Duplicate #2 (various kinases [10]): 51%
- % Inhibition Average (various kinases [11]): 5%
- % Inhibition Duplicate #1 (various kinases [11]): 4%
- % Inhibition Duplicate #2 (various kinases [11]): 6%
- % Inhibition (various kinases [12]): 1% and 2%
- paradoxical effect on centriole number [13]: not observed
